Results: patent US7297696B2, “Antagonists of MCP-1 function and methods of use thereof” (Telik, Inc., priority 2001, dated 2007)

Columns and labels:
Type in all cases: in vivo
male ICR mice = assay: Caerulein-induced pancreatitis; details: 20 mg/kg orally after caerulein injection, then at 3 h and 6 h; blood after 15 h
Experimental: Caerulein was injected intraperitoneally to male ICR mice every 1 h for 6 h. The test compound was given orally immediately after the caerulein injection, and then again at 3 h and 6 h. After 15 h, the mice were sacrificed and their blood was collected and analyzed for serum amylase activity as a marker of pancreatitis.

ICR male mice = assay: Thioglycollate-induced inflammation model; details: peritoneal cavity, 96 h; 10 mg/kg subcutaneous at 0 h, 3 h and 16 hours
Experimental: 3% Brewer's thioglycollate broth (Difco, Detroit, Mich.) was injected into the petitoneal cavity of ICR male mice, followed by subcutaneous administration of the test compounds at the same dose after 0 h, 3 h and 16 hours. After 96 h, the number of total elicited cells and MOMA2-positive cells in the peritoneal cavity was analyzed using an EPICS XL Beckman Coulter.

apoE-deficient mice = assay: Apolipoprotein E-deficient mouse model of atherosclerosis; details: 50 mg/kg as food admixture for 8 weeks, high-fat diet; percent of total cross-sectional wall area
Experimental: Apolipoprotein E (apoE) is a component of several plasma lipoproteins, including chylomicrons, VLDL, and HDL. Receptor-mediated catabolism of these lipoprotein particles is mediated through the interaction of apoE with the LDL receptor (LDLR) or with LDLR-related protein (LRP). […] The efficacy of the compounds of the present invention was also evaluated using this animal model.
Male, 4 week-old apoE-deficient mice were fed on high-fat diet (15% fat, 1.25% cholesterol). The test compound was administered as food admixture for 8 weeks. At 12 weeks old, the mice were fasted for 4 hours and then sacrificed under ether anesthesia. […]
To determine cross-sectional lesion areas, the hearts were embedded in OCT compound and sectioned at 10 μm using cryostat. The sections were stained with oil red O. Each section of the aortic valve was evaluated for oil red O staining by capturing images directly from a RGB camera attached to a light microscope; image analysis was performed with the IPAP-WIN software (Sumika Tekno, Japan). Five sections were examined for each animal, and the sum of the lesion areas was calculated and expressed as the percent of the total cross-sectional wall area. Total cholesterol was determined with a Determiner assay kit (Kyowa Medex, Japan).

O=C(NC(=O)c1ccc2c(c1)OCCO2)Nc1ccc(C(=O)[O-])c(Cl)c1.[Na+] [Compound 57, Sodium 4-{[(2H,3H-benzo[e]1,4-dioxan-6-ylcarbonylamino)carbonyl]amino}-2-chlorobenzoate]
Serum Amylase Level (U, Caraway, mean ± SD) (male ICR mice): 551 ± 157 U, Caraway

O=C(O)COc1ccc(NC(=O)NC(=O)c2ccc3c(c2)OCCO3)cc1Cl [Compound 55, 2-(4-{[(2H,3H-Benzo[e]1,4-dioxan-6-ylcarbonylamino)carbonyl]amino}-2-chlorophenoxy)acetic acid]
MOMA2-positive Cells (ICR male mice): 10.1 ± 1.5 ×10^6 | Total Cells (ICR male mice): 14.1 ± 1.6 ×10^6 | % Atherosclerotic Lesion (mean ± SD) (apoE-deficient mice): 17.80 ± 3.43 %

O=C(NC(=O)c1ccc2c(c1)OCCO2)Nc1ccc(C(=O)[O-])cc1.[Na+] [Compound 59, Sodium 4-{[(2H,3H-benzo[3,4-e]1,4-dioxin-6-ylcarbonylamino)carbonyl]amino}benzoate]
MOMA2-positive Cells (ICR male mice): 13.2 ± 1.4 ×10^6 | Total Cells (ICR male mice): 17.3 ± 1.7 ×10^6 | % Atherosclerotic Lesion (mean ± SD) (apoE-deficient mice): 21.08 ± 6.86%
